# Paper PMC6514607, “Synthesis of Chromen-4-One-Oxadiazole Substituted Analogs as Potent β-Glucuronidase Inhibitors” (Molecules, 2019)
row,melting point [°C],Structure (SMILES)
1,288 to 289,"O=c1cc(-c2ccc(-c3nnc(-c4ccc(Cl)cc4)o3)cc2)oc2ccccc12 [Compound 1, 2-(4-(5-(4-Chlorophenyl)-1,3,4-oxadiazol-2-yl)phenyl)-4H-chromen-4-one]"
2,282 to 283,"O=c1cc(-c2ccc(-c3nnc(-c4cccc(Cl)c4)o3)cc2)oc2ccccc12 [Compound 2, 2-(4-(5-(3-Chlorophenyl)-1,3,4-oxadiazol-2-yl)phenyl)-4H-chromen-4-one]"
3,299 to 300,"O=c1cc(-c2ccc(-c3nnc(-c4ccc(F)cc4)o3)cc2)oc2ccccc12 [Compound 4, 2-(4-(5-(4-Fluorophenyl)-1,3,4-oxadiazol-2-yl)phenyl)-4H-chromen-4-one]"
4,294 to 295,"O=c1cc(-c2ccc(-c3nnc(-c4cccc(F)c4)o3)cc2)oc2ccccc12 [Compound 5, 2-(4-(5-(3-Fluorophenyl)-1,3,4-oxadiazol-2-yl)phenyl)-4H-chromen-4-one]"
5,270 to 271,"Cc1ccc(-c2nnc(-c3ccc(-c4cc(=O)c5ccccc5o4)cc3)o2)cc1 [Compound 7, 2-(4-(5-(p-Tolyl)-1,3,4-oxadiazol-2-yl)phenyl)-4H-chromen-4-one]"
6,264 to 265,"Cc1cccc(-c2nnc(-c3ccc(-c4cc(=O)c5ccccc5o4)cc3)o2)c1 [Compound 8, 2-(4-(5-(m-Tolyl)-1,3,4-oxadiazol-2-yl)phenyl)-4H-chromen-4-one]"
7,304 to 305,"O=c1cc(-c2ccc(-c3nnc(-c4ccc([N+](=O)[O-])cc4)o3)cc2)oc2ccccc12 [Compound 10, 2-(4-(5-(4-Nitrophenyl)-1,3,4-oxadiazol-2-yl)phenyl)-4H-chromen-4-one]"
8,307 to 308,"COc1ccc(-c2nnc(-c3ccc(-c4cc(=O)c5ccccc5o4)cc3)o2)cc1 [Compound 13, 2-(4-(5-(4-Methoxyphenyl)-1,3,4-oxadiazol-2-yl)phenyl)-4H-chromen-4-one]"
9,288 to 289,"O=c1cc(-c2ccc(-c3nnc(-c4ccncc4)o3)cc2)oc2ccccc12 [Compound 18, 2-(4-(5-(Pyridin-4-yl)-1,3,4-oxadiazol-2-yl)phenyl)-4H-chromen-4-one]"
10,280 to 281,"O=c1cc(-c2ccc(-c3nnc(-c4ccccc4)o3)cc2)oc2ccccc12 [Compound 19, 2-(4-(5-Phenyl-1,3,4-oxadiazol-2-yl)phenyl)-4H-chromen-4-one]"

# Continued, compound first:
row,Structure (SMILES),melting point [°C]
1,"O=c1cc(-c2ccc(-c3nnc(Cc4ccccc4Cl)o3)cc2)oc2ccccc12 [Compound 3, 2-(4-(5-(2-Chlorobenzyl)-1,3,4-oxadiazol-2-yl)phenyl)-4H-chromen-4-one]",276 to 277
2,"O=c1cc(-c2ccc(-c3nnc(-c4ccccc4F)o3)cc2)oc2ccccc12 [Compound 6, 2-(4-(5-(2-Fluorophenyl)-1,3,4-oxadiazol-2-yl)phenyl)-4H-chromen-4-one]",291 to 292
3,"Cc1ccccc1-c1nnc(-c2ccc(-c3cc(=O)c4ccccc4o3)cc2)o1 [Compound 9, 2-(4-(5-(o-Tolyl)-1,3,4-oxadiazol-2-yl)phenyl)-4H-chromen-4-one]",260 to 261
4,"O=c1cc(-c2ccc(-c3nnc(-c4cccc([N+](=O)[O-])c4)o3)cc2)oc2ccccc12 [Compound 11, 2-(4-(5-(3-Nitrophenyl)-1,3,4-oxadiazol-2-yl)phenyl)-4H-chromen-4-one]",296 to 297
5,"O=c1cc(-c2ccc(-c3nnc(-c4ccccc4[N+](=O)[O-])o3)cc2)oc2ccccc12 [Compound 12, 2-(4-(5-(2-Nitrophenyl)-1,3,4-oxadiazol-2-yl)phenyl)-4H-chromen-4-one]",287 to 288
6,"COc1cccc(-c2nnc(-c3ccc(-c4cc(=O)c5ccccc5o4)cc3)o2)c1 [Compound 14, 2-(4-(5-(3-Methoxyphenyl)-1,3,4-oxadiazol-2-yl)phenyl)-4H-chromen-4-one]",299 to 300
7,"COc1ccccc1-c1nnc(-c2ccc(-c3cc(=O)c4ccccc4o3)cc2)o1 [Compound 15, 2-(4-(5-(2-Methoxyphenyl)-1,3,4-oxadiazol-2-yl)phenyl)-4H-chromen-4-one]",286 to 287
8,"O=c1cc(-c2ccc(-c3nnc(-c4ccccn4)o3)cc2)oc2ccccc12 [Compound 16, 2-(4-(5-(Pyridin-2-yl)-1,3,4-oxadiazol-2-yl)phenyl)-4H-chromen-4-one]",270 to 271
9,"O=c1cc(-c2ccc(-c3nnc(-c4cccnc4)o3)cc2)oc2ccccc12 [Compound 17, 2-(4-(5-(Pyridin-3-yl)-1,3,4-oxadiazol-2-yl)phenyl)-4H-chromen-4-one]",280 to 281
